According to US20090311264A1, “Use of Disorazoles and Their Derivatives for the Treatment of Benign and Malignant Oncoses” (AEterna Zentaris GmbH, priority 2003, published 2009):
Values after ≈ are worked out from the molar mass of the structure shown. “Also recorded” adds a separate entry of the source. Where two headings read alike, the source gives them in different places. Each block holds one compound with its values, some of them ahead of it.

Experiments:
[1] = test system: human cervical carcinoma cell line KB/HeLa; assay: XTT proliferation assay, KB/HeLa; type: cell-based; conditions: for EC50: Homo sapiens, HeLa
From the text: (§1) The compounds according to the invention were investigated for their antiproliferative activity in a proliferation test on established tumor cell lines (D. A. Scuderio et al. Cancer Res. 1988, 48, 4827-4833). The test used determines the cellular dehydrogenase activity and makes possible a determination of the cell vitality and indirectly of the cell count. The cell lines used are the human cervical carcinoma cell line KB/HeLa (ATCC CCL17), the ovarian adenocarcinoma cell line SKOV-3 (ATCC HTB77), the human glioblastoma cell line SF-268 (NCI 503138), the lung carcinoma cell line NCI-H460 (NCI 503473) and the human colon adenocarcinoma cell line RKOP 27.

[2] = test system: ovarian adenocarcinoma cell line SKOV-3; assay: XTT proliferation assay, SKOV-3; type: cell-based, human; conditions: for EC50: Homo sapiens, SK-OV-3, read-out: XTT proliferation assay, EC50, SKOV3
From the text: as §1

[3] = test system: human glioblastoma cell line SF-268; assay: XTT proliferation assay, SF-268; type: cell-based; conditions: for EC50: Homo sapiens
From the text: as §1

[4] = test system: lung carcinoma cell line NCI-H460; assay: XTT proliferation assay, NCI-H460; type: cell-based, human; conditions: for EC50: Homo sapiens, NCI-H460, read-out: XTT proliferation assay, EC50, NCl-H460
From the text: as §1

[5] = test system: human colon adenocarcinoma cell line RKOP 27; assay: XTT proliferation assay, RKOP 27; type: cell-based
From the text: as §1

bovine β-tubulin = assay: Inhibition of the polymerization of tubulin; type: biochemical; conditions: n = 2
Procedure: The substances were tested in an in-vitro test for inhibition of the polymerization of bovine β-tubulin (D. M. Bollag et al. Cancer Res. 1995, 55, 2325-2333). In this test, tubulin purified by cycles of polymerization and depolymerization is employed, and is polymerized by addition of GTP and warming. The EC50 values of the inhibition of polymerization of β-tubulin with and without 30% associated proteins (MAPs) are indicated in table 3.

[6] = test system: acute myeloid leukemia cell line LT12; assay: XTT proliferation test, LT12 (nonresistant); type: cell-based; conditions: for EC50: Rattus norvegicus
From the text: (§2) For further characterization, the substances according to the invention were investigated against multi-drug-resistant cell lines (MDR) in comparison to the nonresistant wild-type cell lines. The cell lines investigated are the acute myeloid leukemia cell line LT1 and the resistant line LT12/mdr. Moreover, the murine P388 cell line (methylcholanthrene-induced lymphoid neoplasm) and the doxorubicin-resistant P388 were used as test systems.

resistant line LT12/mdr = assay: XTT proliferation test, LT12MDR (resistant); type: cell-based; conditions: for EC50: Rattus norvegicus, LT12
From the text: as §2

murine P388 cell line = assay: XTT proliferation test, P388 (nonresistant); type: cell-based; conditions: for EC50: Mus musculus
From the text: as §2

[7] = test system: doxorubicin-resistant P388; assay: XTT proliferation test, P388ADR (resistant); type: cell-based, murine; conditions: for EC50: Mus musculus, P388
From the text: as §2

KB/HeLa cells = assay: Cell cycle analysis (G2/M arrest); type: cell-based, human; conditions: 24 hours at 37° C., read-out: EC50 (50% cells in G2/M)
NCI-H460 tumor xenograft = assay: In vivo therapy experiment, NCI-H460 tumor xenograft; design: species or system nude mice; conditions: for cases of death: n = 8 animals/group
Procedure: The in-vivo activity of the compounds according to the invention was tested on human and murine xenograft models.

[8] = test system: Salmonella typhimurium TA100; type: cell-based; conditions: for AMES TA100 with S9: with rat liver enzyme S9
Procedure: (§3) For the estimation of possible side effects, disorazole E1 was investigated for mutagenicity in a fluctuation assay against the mutant strains TA98 and TA100 of the bacterium Salmonella typhimurium at three concentrations (2.5; 5 and 10 μM). The mutagenicity investigations were further carried out in the presence of the rat liver enzyme S9.

[9] = test system: Salmonella typhimurium TA98; type: cell-based; conditions: for AMES TA98 with S9: with rat liver enzyme S9
Procedure: as §3

[10] = test system: primary human hepatocytes; assay: Survival of nonproliferating cells (alamarBlue); type: cell-based; conditions: 1 μM, n = 3
From the text: (§4) For the estimation of the possible side-effect potential, the influence of disorazole E1 on nonproliferating cells and on the protein biosynthesis was investigated (table 6).

[11] = test system: human hepatocellular carcinoma cells (HepG2); assay: Protein synthesis (incorporation of 14C-methionine); type: cell-based; conditions: 1 μM, 14C-methionine incorporation, n = 2
From the text: as §4

SMILES: C/C=C/[C@H](O)C(C)(C)[C@@H]1C\C=C/C=C\C=C\[C@H](OC)Cc2nc(co2)C(=O)O[C@H](C(C)(C)[C@@H](O)/C=C/C)C/C=C\[C@H]2O[C@H]2/C=C/C=C\c2nc(co2)C(=O)O1 [Disorazole A1]
- XTT proliferation assay, EC50, KB/Hela [1]: 0.15 ng/mL
- XTT proliferation assay, EC50, SKOV3 [2]: 0.2 ng/mL
- XTT proliferation assay, EC50, SF-268 [3]: 0.27 ng/mL
- XTT proliferation assay, EC50, NCl-H460 [4]: 0.15 ng/mL
- XTT proliferation assay, EC50, RKOP 27 [5]: 0.25 ng/mL
- Inhibition of the polymerization of β-tubulin, EC50 with 30% MAPs (bovine β-tubulin): 4800 ng/mL

SMILES: C/C=C/C(O)C(C)(C)C1C/C=C\C2OC2C=CC(OC)Cc2nc(co2)C(=O)OC(C(C)(C)C(O)/C=C/C)C/C=C\C2OC2/C=C\C=Cc2nc(co2)C(=O)O1 (centres unmarked) [Disorazole E1]
- XTT proliferation assay, EC50, KB/Hela [1]: 0.07 ng/mL
- XTT proliferation assay, EC50, SKOV3 [2]: 0.02 ng/mL
- XTT proliferation assay, EC50, SF-268 [3]: 0.17 ng/mL
- XTT proliferation assay, EC50, NCl-H460 [4]: 0.04 ng/mL
- XTT proliferation assay, EC50, RKOP 27 [5]: 0.06 ng/mL
- XTT proliferation assay, EC50, LT12 [6]: 0.1 ng/mL
- XTT proliferation assay, EC50, LT12MDR (resistant line LT12/mdr): 4 ng/mL
- XTT proliferation assay, EC50, P388 (murine P388 cell line): 0.4 ng/mL
- XTT proliferation assay, EC50, P388ADR [7]: 1 ng/mL
- Inhibition of the polymerization of β-tubulin, EC50 with 30% MAPs (bovine β-tubulin): 1500 ng/mL
- EC50 (KB/HeLa cells): 1.6 nM
- cases of death (NCI-H460 tumor xenograft; 0.05 mg/kg, i.v.: day 0, 7, 14): 0.05 mg/kg; i.v.: day 0, 7, 14; no cases of
- cases of death (NCI-H460 tumor xenograft; 0.1 mg/kg, i.v.: day 0, 7, 14): 0.1 mg/kg; i.v.: day 0, 7, 14; no cases of
- cases of death (NCI-H460 tumor xenograft; 0.25 mg/kg, i.v.: day 0, 7, dead on day 11, 12, 13): 0.25 mg/kg; i.v.: day 0, 7; 8 dead (day
- reduction of the tumor growth (NCI-H460 tumor xenograft; i.v., NCI-H460 xenograft-bearing nude mice, at doses without weight decrease or mortality): significant reduction in tumor growth; also recorded: significant reduction of the tumor growth
- weight decrease (NCI-H460 tumor xenograft; i.v., at doses reducing tumor growth): no significant weight decrease
- AMES TA100 with S9 ([8]; 2.5 μM): inactive
- AMES TA100 without S9 ([8]; 2.5 μM): inactive
- AMES TA100 with S9 ([8]; 5 μM): inactive
- AMES TA100 without S9 ([8]; 5 μM): inactive
- AMES TA100 with S9 ([8]; 10 μM): inactive
- AMES TA100 without S9 ([8]; 10 μM): inactive
- AMES TA98 with S9 ([9]; 2.5 μM): inactive
- AMES TA98 without S9 ([9]; 2.5 μM): inactive
- AMES TA98 with S9 ([9]; 5 μM): inactive
- AMES TA98 without S9 ([9]; 5 μM): inactive
- AMES TA98 with S9 ([9]; 10 μM): inactive
- AMES TA98 without S9 ([9]; 10 μM): inactive
- AMES test, overall result ([9]; TA98 and TA100, with and without S9, 2.5, 5 and 10 μM): AMES test-inactive
- Surviving cells, primary human hepatocytes, Average, % of control [10]: 119.6 % of control
- Protein synthesis, Average, % of control [11]: 95.9 % of control

- EC50 [1]: 10 ng/mL (≈ 0.0117 µM)
- EC50 [2]: 10 ng/mL (≈ 0.0117 µM)
- EC50 [3]: 10 ng/mL (≈ 0.0117 µM)
- EC50 [4]: 10 ng/mL (≈ 0.0117 µM)
- EC50 [6]: 5 ng/mL (≈ 0.00586 µM)
- EC50 (murine P388 cell line): 35 ng/mL (≈ 0.041 µM)
- EC50 [7]: > 3160 ng/mL
- EC50 (KB/HeLa cells; Homo sapiens): 46 nM
SMILES: CC(=O)O[C@H]1C(=O)[C@@]2(C)[C@H]([C@H](OC(=O)c3ccccc3)[C@]3(O)C[C@H](OC(=O)[C@H](O)[C@@H](NC(=O)c4ccccc4)c4ccccc4)C(C)=C1C3(C)C)[C@]1(OC(C)=O)CO[C@@H]1C[C@@H]2O [Paclitaxel]
- EC50 (resistant line LT12/mdr): 340 ng/mL (≈ 0.398 µM)

- EC50 [1]: 2 ng/mL (≈ 0.00265 µM)
- EC50 [2]: 2 ng/mL (≈ 0.00265 µM)
- EC50 [3]: 5 ng/mL (≈ 0.00663 µM)
- EC50 [4]: 6 ng/mL (≈ 0.00796 µM)
- EC50 [6]: 0.9 ng/mL (≈ 0.00119 µM)
- EC50 (murine P388 cell line): 9 ng/mL (≈ 0.0119 µM)
- EC50 [7]: 940 ng/mL (≈ 1.25 µM)
- Inhibition of the polymerization of β-tubulin, EC50 with 30% MAPs (bovine β-tubulin): 400 ng/mL
- EC50 (KB/HeLa cells; Homo sapiens): 3 nM
SMILES: CC[C@]1(O)C[C@@H]2CN(CCc3c([nH]c4ccccc34)[C@@](C(=O)OC)(c3cc4c(cc3OC)N(C)[C@H]3[C@@](O)(C(N)=O)[C@H](O)[C@]5(CC)C=CCN6CC[C@]43[C@@H]65)C2)C1 [Vindesine]
- EC50 (resistant line LT12/mdr): 222 ng/mL (≈ 0.294 µM)
